From patent publication US20240101531A1, “PYRIDINAMINE DERIVATIVES AND THEIR USE AS POTASSIUM CHANNEL MODULATORS” (Xenon Pharmaceuticals Inc., priority 2022, published 2024)

Biological target: human KV7.2/KV7.3 (Homo sapiens (Human), UniProt O43525+O43526)
Assay: Potassium flux assay (IPG-2 AM dye)
Type: cell-based
Conditions: TREX HEK 293 or HEK 293 cells expressing human KV7.2/KV7.3; arithmetic mean values
Source text: This potassium flux assay employs the cell-permeable, potassium-sensitive dye, IPG-2 AM, to quantify potassium ion flux through potassium channels.
In general, TREX HEK 293 or HEK 293 cells were stably transfected with either an inducible or non-inducible expression vector containing the full-length cDNA coding for the desired human KV7.2/KV7.3 or in combination with another full-length cDNA for a second desired human KV7 potassium channel. Potassium channel-expressing cell lines were induced with tetracycline (1 μg/mL), if required, and plated on 384-well poly-D-lysine (PDL)-coated plates in culture media (DMEM, containing 10% FBS and 1% L-glutamine). After overnight incubation, culture media was removed and cells were loaded with 5 μM IPG-2 AM dye for 1 hour in Assay buffer (140 mM NaCl, 20 mM RbCl, 2 mM CaCl2, 1 mM MgCl2, 10 mM HEPES (4-(2-hydroxyethyl)-1-piperazineethanesulfonic acid buffer), 10 mM glucose, adjusted with Tris to pH 7.4). Excess dye was removed, and cells incubated at room temperature for 20 minutes with or without test compound. A Hamamatsu FDSS μCell was used to perform a 1:1 addition of K challenge buffer (150 mM NaCl, 10 mM HEPES, 2 mM CaCl2, 10 mM KCl, 1 mM MgCl2, 10 mM glucose, adjusted with Tris to pH 7.4 for human KV7.2/KV7.3, and simultaneously read plates at excitation wavelength of 530 nm and emission wavelength of 558 nm. Non-potassium channel-mediated potassium influx was determined in the presence of DMSO, and maximal influx was determined in the presence of a known KV7.x channel modulator. For each test compound, a concentration response curve was generated with 16 concentrations points, 2-fold serial dilution starting at 30 μM and an EC50 value was determined.

SMILES	EC50 [nM]
O[C@@H]1COC[C@@H]1Oc1ccc2c(Nc3ccc(Cl)nc3)nccc2c1 (racemic) [Example 79, rac-(3R,4S)-4-((1-((6-chloropyridin-3-yl)amino)isoquinolin-6-yl)oxy)tetrahydrofuran-3-ol]	1000 to 10000
O[C@@H]1CC[C@@H](Oc2ccc3c(Nc4ccc(Cl)nc4)nccc3c2)C1 (racemic) [Example 103, rac-(1R,3R)-3-((1-((6-chloropyridin-3-yl)amino)isoquinolin-6-yl)oxy)cyclopentan-1-ol]	< 1000
O[C@]1(C(F)(F)F)CCC[C@H](Oc2ccc3c(Nc4cnc(Cl)nc4)nccc3c2)C1 (racemic) [Example 145, rac-(1R,3S)-3-((1-((2-chloropyrimidin-5-yl)amino)isoquinolin-6-yl)oxy)-1-(trifluoromethyl)cyclohexan-1-ol]	< 1000
CC(Oc1ccc2c(Nc3ccc(Cl)nc3)nccc2c1)c1cnn(C)c1 (racemic) [Example 170, N-(6-chloropyridin-3-yl)-6-(1-(1-methyl-1H-pyrazol-4-yl)ethoxy)isoquinolin-1-amine]	< 1000
O[C@@H]1CCC[C@H](Oc2ccc3c(Nc4cnc(Cl)nc4)nccc3c2)C1 (relative stereo) [Example 348, cis-3-((1-((2-chloropyrimidin-5-yl)amino)isoquinolin-6-yl)oxy)cyclohexan-1-ol]	< 1000
O[C@@H]1CCC[C@@H](Oc2ccc3c(Nc4ccc(Cl)nc4)nccc3c2)C1 (relative stereo) [Example 354, trans-3-((1-((6-chloropyridin-3-yl)amino)isoquinolin-6-yl)oxy)cyclohexan-1-ol]	< 1000
N=[S@]1(=O)CCC[C@@H](COc2ccc3c(Nc4cnc(Cl)nc4)nccc3c2)C1 (relative stereo) [Example 366, cis-3-(((1-((2-chloropyrimidin-5-yl)amino)isoquinolin-6-yl)oxy)methyl)-1-iminohexahydro-1λ^6-thiopyran 1-oxide]	1000 to 10000
N#CC1(COc2ccc3c(Nc4ccc(Cl)nc4)nccc3c2)CCOC1 (stereo in doubt) [Example 125, (R)-3-(((1-((6-chloropyridin-3-yl)amino)isoquinolin-6-yl)oxy)methyl)tetrahydrofuran-3-carbonitrile]	< 1000
CS(=O)(=Nc1ccc2c(Nc3ccc(Cl)nc3)nccc2c1)C1CC1 (stereo in doubt) [Example 273, (R)-((1-((6-chloropyridin-3-yl)amino)isoquinolin-6-yl)imino)(cyclopropyl)(methyl)-λ^6-sulfanone]	1000 to 10000
CS(=O)(=Nc1ccc2c(Nc3ccc(Cl)nc3)nccc2c1)C1CC1 (stereo in doubt) [Example 274, (S)-((1-((6-chloropyridin-3-yl)amino)isoquinolin-6-yl)imino)(cyclopropyl)(methyl)-λ^6-sulfanone]	< 1000
CS(=O)(=Nc1ccc2c(Nc3ccc(Cl)nc3)nccc2c1)C1COC1 (stereo in doubt) [Example 276, (S)-((1-((6-chloropyridin-3-yl)amino)isoquinolin-6-yl)imino)(methyl)(oxetan-3-yl)-λ^6-sulfanone)]	1000 to 10000
CS(=O)(=Nc1ccc2c(Nc3ccc(Cl)nc3)nccc2c1)C1COC1 (stereo in doubt) [Example 277, (R)-((1-((6-chloropyridin-3-yl)amino)isoquinolin-6-yl)imino)(methyl)(oxetan-3-yl)-λ^6-sulfanone)]	1000 to 10000
FC1(COc2ccc3c(Nc4ccc(Cl)nc4)nccc3c2)CCOC1 (stereo in doubt) [Example 365, (S)—N-(6-chloropyridin-3-yl)-6-((3-fluorotetrahydrofuran-3-yl)methoxy)isoquinolin-1-amine]	< 1000
Clc1ccc(Nc2nccc3cc(OCC4CC4)ccc23)cn1 [Example 2, N-(6-chloropyridin-3-yl)-6-(cyclopropylmethoxy)isoquinolin-1-amine]	< 1000
COCCOc1ccc2c(Nc3ccc(Cl)nc3)nccc2c1 [Example 4, N-(6-chloropyridin-3-yl)-6-(2-methoxyethoxy)isoquinolin-1-amine]	1000 to 10000

The next lines start with the values.

EC50 [nM]	SMILES
< 1000	O[C@@H]1CCC[C@H](Oc2ccc3c(Nc4ccc(Cl)nc4)nccc3c2)C1 (racemic) [Example 95, rac-(1R,3S)-3-((1-((6-chloropyridin-3-yl)amino)isoquinolin-6-yl)oxy)cyclohexan-1-ol]
< 1000	O[C@H]1CC[C@@H](Oc2ccc3c(Nc4ccc(Cl)nc4)nccc3c2)C1 (racemic) [Example 102, rac-(1S,3R)-3-((1-((6-chloropyridin-3-yl)amino)isoquinolin-6-yl)oxy)cyclopentan-1-ol]
< 1000	N#CC1(COc2ccc3c(Nc4ccc(Cl)nc4)nccc3c2)CCOC1 (racemic) [Example 124, 3-(((1-((6-chloropyridin-3-yl)amino)isoquinolin-6-yl)oxy)methyl)tetrahydrofuran-3-carbonitrile]
1000 to 10000	Cc1nn(C)cc1C(C)Oc1ccc2c(Nc3ccc(Cl)nc3)nccc2c1 (racemic) [Example 173, N-(6-chloropyridin-3-yl)-6-(1-(1,3-dimethyl-1H-pyrazol-4-yl)ethoxy)isoquinolin-1-amine]
< 1000	CO[C@@H]1CCC[C@H](Oc2ccc3c(Nc4cnc(Cl)nc4)nccc3c2)C1 (racemic) [Example 360, cis-N-(2-chloropyrimidin-5-yl)-6-(((1S,3R)-3-methoxycyclohexyl)oxy)isoquinolin-1-amine]
< 1000	O[C@@H]1CCCC[C@@H]1Oc1ccc2c(Nc3ccc(Cl)nc3)nccc2c1 (relative stereo) [Example 142, cis-2-((1-((6-chloropyridin-3-yl)amino)isoquinolin-6-yl)oxy)cyclohexan-1-ol]
< 1000	O[C@@H]1CCCC[C@H]1Oc1ccc2c(Nc3ccc(Cl)nc3)nccc2c1 (relative stereo) [Example 143, trans-2-((1-((6-chloropyridin-3-yl)amino)isoquinolin-6-yl)oxy)cyclohexan-1-ol]
< 1000	N=[S@@]1(=O)CCC[C@@H](COc2ccc3c(Nc4cnc(Cl)nc4)nccc3c2)C1 (relative stereo) [Example 367, trans-3-(((1-((2-chloropyrimidin-5-yl)amino)isoquinolin-6-yl)oxy)methyl)-1-iminohexahydro-1λ^6-thiopyran 1-oxide]
< 1000	N#CC1(COc2ccc3c(Nc4ccc(Cl)nc4)nccc3c2)CCOC1 (stereo in doubt) [Example 126, (S)-3-(((1-((6-chloropyridin-3-yl)amino)isoquinolin-6-yl)oxy)methyl)tetrahydrofuran-3-carbonitrile]
< 1000	FC1(COc2ccc3c(Nc4ccc(Cl)nc4)nccc3c2)CCOC1 (stereo in doubt) [Example 364, (R)—N-(6-chloropyridin-3-yl)-6-((3-fluorotetrahydrofuran-3-yl)methoxy)isoquinolin-1-amine]
1000 to 10000	CC(C)Oc1ccc2c(Nc3ccc(Cl)nc3)nccc2c1 [Example 1, N-(6-chloropyridin-3-yl)-6-isopropoxyisoquinolin-1-amine]
1000 to 10000	CCCOc1ccc2c(Nc3ccc(Cl)nc3)nccc2c1 [Example 3, N-(6-chloropyridin-3-yl)-6-propoxyisoquinolin-1-amine]
1000 to 10000	Clc1ccc(Nc2nccc3cc(OCc4ccccn4)ccc23)cn1 [Example 5, N-(6-chloropyridin-3-yl)-6-(pyridin-2-ylmethoxy)isoquinolin-1-amine]
